{
  "source": "patent US8071570B2",
  "about": "“Mixtures of polysaccharides derived from heparin, their preparation and pharmaceutical compositions containing them” (Aventis Pharma S.A., priority 2002, dated 2011)",
  "key": {"[1]": {"tested_on": "activated factor X (factor Xa)", "experiment": "anti-Xa activity, amidolytic method on a chromogenic substrate", "assay_type": "biochemical", "details": "isolated hexasaccharide", "experimental": "The anti-Xa activity is measured by the amidolytic method on a chromogenic substrate described by Teien et al., Thromb. Res., 10, 399-410 (1977), with, as standard, the first international standard for low-molecular-weight heparins. See Barrowcliffe, T. W., A. D. Curtis, et al. (1985). “Standardization of Low Molecular Weight Heparins: A Collaborative Study.” Thrombosis and Haemostasis 54: 675-679; and Barrowcliffe, T. W. (1988). “An International Standard for Low Molecular Weight Heparin.” Thrombosis and Haemostasis 60:1-7."}, "[2]": {"molecular_target": "ATIII (Homo sapiens, UniProt P01008)", "sequence (P01008 33-464, species assumed)": "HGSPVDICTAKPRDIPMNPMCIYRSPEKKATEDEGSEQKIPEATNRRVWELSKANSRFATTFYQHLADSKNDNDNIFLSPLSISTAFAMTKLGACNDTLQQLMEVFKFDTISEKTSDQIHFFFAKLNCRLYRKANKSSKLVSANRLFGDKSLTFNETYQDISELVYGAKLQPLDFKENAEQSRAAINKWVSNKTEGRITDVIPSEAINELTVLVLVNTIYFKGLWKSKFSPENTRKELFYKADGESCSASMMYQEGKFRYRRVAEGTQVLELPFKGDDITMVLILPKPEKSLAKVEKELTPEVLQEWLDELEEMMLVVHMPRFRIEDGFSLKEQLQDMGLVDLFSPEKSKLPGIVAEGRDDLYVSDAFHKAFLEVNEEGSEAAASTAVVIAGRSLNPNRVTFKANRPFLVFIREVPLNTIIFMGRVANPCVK"}},
  "data": [
    {"smiles": "CC(=O)N[C@H]1[C@@H](O[C@H]2[C@H](O)[C@@H](O)[C@H](O[C@H]3[C@H](OS(=O)(=O)O)[C@@H](NS(=O)(=O)O)[C@@H](O[C@H]4[C@H](O)[C@@H](OS(=O)(=O)O)[C@H](O[C@H]5[C@H](O)[C@@H](NS(=O)(=O)O)[C@@H](O)O[C@@H]5COS(=O)(=O)O)O[C@H]4C(=O)O)O[C@@H]3COS(=O)(=O)O)O[C@@H]2C(=O)O)O[C@H](COS(=O)(=O)O)[C@@H](O[C@@H]2OC(C(=O)O)=C[C@H](O)[C@H]2O)[C@@H]1O", "note": "[hexasaccharide ΔIIa-IIs-Is]", "values": [
      {"measurement": "aXa activity", "setting": "[1]", "value": "greater than 740 U/mg"},
      {"measurement": "affinity for ATIII", "setting": "[2]", "value": "high affinity"}
    ]}
  ]
}
